According to US10660967B2, “Curcumin conjugates and methods of use thereof” (priority 2016, dated 2020):

System: carrageenan induced paw edema
Assay: Anti-inflammatory activity: acute carrageenan induced paw edema in rats
Assay type: in vivo, Wister rats
Details: 10 mg kg^−1 indomethacin mol equivalent; for % inhibition of edema / Mean edema thickness: intraperitoneally; for Mean edema thickness: mean ± SE; for Potency (% inhibition of edema relative to that of indomethacin reference standard): at 4 h effect
Description: The anti-inflammatory activity of the tested compounds was determined in vivo by the acute carrageenan induced paw edema standard method in rats. See, Naumov, et al., Bioorg. Med. Chem. Lett, 25: 2314-2320 (2015), Tiwari, et al., Org. Biomol. Chem, 12: 7238-7249 (2014), Girgis, et al., Eur. J. Med. Chem, 50: 1-8 (2012), Barsoum, et al., Eur. J. Med. Chem, 44: 2172-2177 (2009), Girgis, et al., Eur. J. Med. Chem, 44: 1972-1977 (2009), Girgis, et al., Eur. J. Med. Chem, 44: 1257-1264 (2009), Girgis, et al., Eur. J. Med. Chem, 44: 91-100 (2009), Girgis, et al., Eur. J. Med. Chem, 43: 2116-2121 (2008), Girgis, et al., Bioorg. Med. Chem, 14: 8527-8532 (2006), and Barsoum, et al., Bioorg. Med. Chem, 14: 3929-3937 (2006).
Adult Wister rats of either sex (pregnant female animals were excluded) weighing 120-150 g were divided into 18 groups of 6 animals each. […] The control group was given DMSO only. Carrageenan paw edema was induced by subcutaneous injection of freshly prepared 1% solution of carrageenan in saline (0.9%, 0.1 ml per rat) into subplantar tissue of the right hind paw of rats. The thickness of the paw was measured (in mm) after successive time intervals (1, 2,3,4 and 24 h) and compared with the initial hind paw thickness of each rat for determining the edema thickness. Data were collected, checked, revised and analyzed. Quantitative variables from normal distribution were expressed as means±SE “standard error”. The anti-inflammatory activity was expressed as percentage inhibition of edema thickness in treated animals in comparison with the control group according to eqn. (1)
Where, Vc and Vt are the mean of edema paw thickness for the control and tested compound treated animal groups, respectively.

Structure (SMILES) | % inhibition of edema (1 h) [%] | Mean edema thickness (1 h) [mm] | % inhibition of edema (2 h) [%] | Mean edema thickness (2 h) [mm] | % inhibition of edema (3 h) [%] | Mean edema thickness (3 h) [mm] | % inhibition of edema (4 h) [%] | Mean edema thickness (4 h) [mm] | % inhibition of edema (24 h) [%] | Mean edema thickness (24 h) [mm] | Potency (% inhibition of edema relative to that of indomethacin reference standard)
COc1cc(/C=C/C(=O)CC(=O)/C=C/c2ccc(OC(=O)[C@@H](NC(=O)OCC3c4ccccc4-c4ccccc43)C(C)C)c(OC)c2)ccc1OC(=O)[C@@H](NC(=O)OCC1c2ccccc2-c2ccccc21)C(C)C [Compound 15] | 22 | 1.88 ± 0.22 | 49 | 1.05 ± 0.23 | 50 | 0.90 ± 0.17 | 53 | 0.66 ± 0.19 | 47 | 0.44 ± 0.11 | 61
COc1cc(/C=C/C(=O)CC(=O)/C=C/c2ccc(OC(=O)[C@H](CC(C)C)NC(=O)OCC3c4ccccc4-c4ccccc43)c(OC)c2)ccc1OC(=O)[C@H](CC(C)C)NC(=O)OCC1c2ccccc2-c2ccccc21 [Compound 16] | 40 | 1.45 ± 0.18 | 41 | 1.22 ± 0.25 | 48 | 0.93 ± 0.20 | 50 | 0.70 ± 0.19 | 40 | 0.50 ± 0.10 | 57
COc1cc(/C=C/C(=O)CC(=O)/C=C/c2ccc(OC(=O)[C@H](CCSC)NC(=O)OCC3c4ccccc4-c4ccccc43)c(OC)c2)ccc1OC(=O)[C@H](CCSC)NC(=O)OCC1c2ccccc2-c2ccccc21 [Compound 17] | 46 | 1.30 ± 0.04 | 73 | 0.56 ± 0.17 | 75 | 0.45 ± 0.18 | 98 | 0.03 ± 0.01 | 23 | 0.64 ± 0.02 | 113
COc1cc(/C=C/C(=O)CC(=O)/C=C/c2ccc(OC(=O)[C@H](Cc3ccccc3)NC(=O)OCC3c4ccccc4-c4ccccc43)c(OC)c2)ccc1OC(=O)[C@H](Cc1ccccc1)NC(=O)OCC1c2ccccc2-c2ccccc21 [Compound 18] | 10 | 2.17 ± 0.24 | 41 | 1.22 ± 0.16 | 54 | 0.82 ± 0.08 | 60 | 0.56 ± 0.04 | 5 | 0.79 ± 0.02 | 69
COc1cc(/C=C/C(=O)CC(=O)/C=C/c2ccc(OC(=O)[C@@H](C)NC(=O)OCc3ccccc3)c(OC)c2)ccc1OC(=O)[C@@H](C)NC(=O)OCc1ccccc1 [Compound 19] | 82 | 0.43 ± 0.08 | 89 | 0.23 ± 0.04 | 95 | 0.09 ± 0.03 | 100 | 0.00 ± 0.00 | 49 | 0.42 ± 0.06 | 115
COc1cc(/C=C/C(=O)CC(=O)/C=C/c2ccc(OC(=O)[C@@H](CCSC)NC(=O)OCc3ccccc3)c(OC)c2)ccc1OC(=O)[C@@H](CCSC)NC(=O)OCc1ccccc1 [Compound 20] | 79 | 0.51 ± 0.04 | 80 | 0.41 ± 0.03 | 85 | 0.27 ± 0.01 | 94 | 0.08 ± 0.02 | 90 | 0.08 ± 0.01 | 108
COc1cc(/C=C/C(=O)CC(=O)/C=C/c2ccc(OC(=O)[C@H](CCC(N)=O)NC(=O)OCc3ccccc3)c(OC)c2)ccc1OC(=O)[C@H](CCC(N)=O)NC(=O)OCc1ccccc1 [Compound 21] | 51 | 1.18 ± 0.11 | 47 | 1.09 ± 0.19 | 45 | 0.99 ± 0.09 | 44 | 0.78 ± 0.10 | 4 | 0.80 ± 0.05 | 51
COc1cc(/C=C/C(=O)CC(=O)/C=C/c2ccc(OC(=O)CNC(=O)OC(C)(C)C)c(OC)c2)ccc1OC(=O)CNC(=O)OC(C)(C)C [Compound 22] | 43 | 1.37 ± 0.18 | 44 | 1.16 ± 0.14 | 44 | 1.00 ± 0.11 | 48 | 0.73 ± 0.09 | 47 | 0.44 ± 0.05 | 55
COc1cc(/C=C/C(=O)CC(=O)/C=C/c2ccc(OC(=O)[C@H](Cc3ccccc3)NC(=O)OC(C)(C)C)c(OC)c2)ccc1OC(=O)[C@H](Cc1ccccc1)NC(=O)OC(C)(C)C [Compound 23] | 39 | 1.47 ± 0.16 | 44 | 1.16 ± 0.09 | 53 | 0.85 ± 0.11 | 59 | 0.58 ± 0.03 | 51 | 0.41 ± 0.02 | 68
COc1cc(/C=C/C(=O)CC(=O)/C=C/c2ccc(OC(=O)[C@H](C)NC(=O)OC(C)(C)C)c(OC)c2)ccc1OC(=O)[C@H](C)NC(=O)OC(C)(C)C [Compound 24] | 6 | 2.26 ± 0.20 | 11 | 1.84 ± 0.17 | 20 | 1.44 ± 0.14 | 28 | 1.04 ± 0.18 | 5 | 0.79 ± 0.17 | 32
COc1cc(/C=C/C(=O)CC(=O)/C=C/c2ccc(OC(=O)C(C)NC(=O)OC(C)(C)C)c(OC)c2)ccc1OC(=O)C(C)NC(=O)OC(C)(C)C (stereo not shown) [Compound 25] | 11 | 2.15 ± 0.14 | 16 | 1.74 ± 0.18 | 25 | 1.34 ± 0.20 | 40 | 0.84 ± 0.12 | 29 | 0.59 ± 0.09 | 46
